From US7361643B2, “Methods for inhibiting angiogenesis” (University of Puerto Rico, priority 2000, dated 2008)

Tests used:
[1] = system: capillary endothelial cells; settings: BANERJEE et al. (1993); cited from earlier work
protein N-glycosylation = settings: pre-treatment of cells with β-antagonist; cited from earlier work
[2] = system: bovine adrenal medullary microvascular endothelial cells; experiment: Capillary endothelial cell growth and proliferation (cell count in hemacytometer); type: cell-based
Procedure: Cells in the amount of 2.0×10^4 were seeded per well in 24-well clusters in 1 ml complete EMEM containing 10% (v/v) serum and allowed to grow for 72 hours. Media were removed and the cells were washed twice with phosphate-buffer saline, pH 7.4 (PBS). Cells were synchronized by incubating for 48 hours in 2 mM hydroxyurea in serum-free EMEM with glutamine (2 mM) and one-third of penicillin-streptomycin used in a regular culture condition, followed by incubating 24 hours in serum-free EMEM, as discussed in CAO et al., “Modified Method of Mammalian Cell Synchronization Improves Yield and Degree of Synchronization”, Exp. Cell Res., 193:405-410 (1991), the disclosure of which is herein incorporated by reference in its entirety.
For proliferation assay, cells were trypsinized and counted in a hemacytometer. Viability of cells was determined by trypan blue (0.4% (v/v)) exclusion. Statistical analysis was carried out by StatView II software (Macintosh). Quantitation of cellular differentiation was carried out by observing under a Nikon AlphaShot inverted microscope, and counting the number of capillary lumen-like structures in five randomly selected fields per sample.
Synchronized cells, as described in Example 1, were cultured at 37° C. in complete EMEM containing fetal bovine serum (1% (v/v), 2% (v/v), or 10% (v/v), or complete EMEM with 2% (v/v) fetal bovine serum containing 1 ng/ml −100 ng/ml of bFGF/FGF-2, or containing 0.5 μg/ml to 5.0 μg/ml tunicamycin (lot number 10922120-07 from Boehringer-Mannheim, Indianapolis, Ind.). In each case, the cellular growth and proliferation was monitored by trypan blue exclusion, by counting the cell number, and by their ability to process through the cell cycle by flow cytometry.
Proliferation and Differentiation of Capillary Endothelial Cells: 2.0×10^4 cells were seeded per well in 24-well clusters in 1 ml complete EMEM containing 10% (v/v) serum and allowed to grow for 72 hours. Media were removed and the cells were washed twice with phosphate-buffer saline, pH 7.4 (PBS). […] Cells were routinely monitored by light microscopy. For proliferation assay, cells were trypsinized and counted in a hemacytometer. Viability of cells was determined by trypan blue (0.4% (v/v)) exclusion. […] Quantitation of cellular differentiation was carried out by observing under a Nikon AlphaShot inverted microscope, and counting the number of capillary lumen-like structures in five randomly selected fields per sample. The results were expressed as percent of its corresponding control after normalization of cell numbers. Analysis of Cell Cycle by Flow Cytometry: Assessment of the cell cycle was determined by propidium iodide staining of fixed cell nuclei followed by flow cytometry in a FacSort (Beckton Dickinson) according to the method of Krishan (1975) as modified by Vindelov (1977), as discussed in KRISHAN, “Rapid Flow Cytometric Analysis of Mammalian Cell Cycle by Propidium Iodide Staining”, J. Cell Biol. 66:188-195 (1975); and VINDELOV, “Flow Cytometric Analysis of Nuclear DNA in Cells from Solid Tumors and Cell Suspensions”, Virchows Arch (B), 24:227-231 (1977), the disclosures of which are herein incorporated by reference in their entireties. […]

[3] = system: bovine adrenal medullary microvascular endothelial cells; experiment: Cell cycle and apoptosis by flow cytometry (propidium iodide); type: cell-based
Procedure: Regarding flow cytometry, assessment of the cell cycle was determined by propidium iodide staining of fixed cell nuclei followed by flow cytometry in a FacSort (Beckton Dickinson) according to the method of Krishan (1975) as modified by Vindelov (1977), as discussed in KRISHAN, “Rapid Flow Cytofluorometric Analysis of Mammalian Cell Cycle by Propidium Iodide Staining”, J. Cell Biol., 66:188-193 (1975); and VINDELOV, “Flow Cytometric Analysis of Nuclear DNA in Cells from Solid Tumors and Cell Suspensions”, Virchows Arch (B), 24:227-231(1977), the disclosures of which are herein incorporated by reference in their entireties. Briefly, cells were trypsinized, and pelleted by centrifugation at 900 rpm in a bench top centrifuge (Sorvall T6000B). After washing twice with PBS the cell pellet was resuspended in propidium iodide-buffer (PI-buffer; 10 mM Tris-HCl, pH 8.0 containing 10 mM NaCl, 0.7 μM PI, 700 units/liter RNase, and 0.1% (v/v) NP-40), kept in ice for 30 minutes and then fixed with 2% (v/v) paraformaldehyde. After FacSort calibration, 3000 events were counted per sample. Acquisition and analysis of data were carried out by using Cell Quest flow cytometry software (Macintosh-based). Gates: M1=G0/G1, M2=S, M3=G2+M, M4=apoptosis.
Proliferation and Differentiation of Capillary Endothelial Cells: 2.0×10^4 cells were seeded per well in 24-well clusters in 1 ml complete EMEM containing 10% (v/v) serum and allowed to grow for 72 hours. Media were removed and the cells were washed twice with phosphate-buffer saline, pH 7.4 (PBS). Cells were synchronized by incubating for 48 hours in 2 mM hydroxyurea in serum-free EMEM with glutamine (2 mM) and one-third of penicillin-streptomycin used in a regular culture condition, followed by incubating 24 hours in serum-free EMEM, as discussed in CAO et al., “Modified Method of Mammalian Cell Synchronization Improves Yield and Degree of Synchronization”, Exp. Cell Res., 193:405-410 (1991), the disclosure of which is herein incorporated by reference in its entirety. Cells were routinely monitored by light microscopy. For proliferation assay, cells were trypsinized and counted in a hemacytometer. Viability of cells was determined by trypan blue (0.4% (v/v)) exclusion. Statistical analysis was carried out by StatView II software (Macintosh). Quantitation of cellular differentiation was carried out by observing under a Nikon AlphaShot inverted microscope, and counting the number of capillary lumen-like structures in five randomly selected fields per sample. The results were expressed as percent of its corresponding control after normalization of cell numbers. Analysis of Cell Cycle by Flow Cytometry: Assessment of the cell cycle was determined by propidium iodide staining of fixed cell nuclei followed by flow cytometry in a FacSort (Beckton Dickinson) according to the method of Krishan (1975) as modified by Vindelov (1977), as discussed in KRISHAN, “Rapid Flow Cytometric Analysis of Mammalian Cell Cycle by Propidium Iodide Staining”, J. Cell Biol. 66:188-195 (1975); and VINDELOV, “Flow Cytometric Analysis of Nuclear DNA in Cells from Solid Tumors and Cell Suspensions”, Virchows Arch (B), 24:227-231 (1977), the disclosures of which are herein incorporated by reference in their entireties. Briefly, cells were trypsinized, and pelleted by centrifugation at 900 rpm in a bench top centrifuge (Sorvall T6000B). After washing twice with PBS the cell pellet was resuspended in propidium iodide-buffer (PI-buffer; 10 mM Tris-HCl, pH 8.0 containing 10 mM NaCl, 0.7 μM PI, 700 units/liter RNase, and 0.1% (v/v) NP-40), kept in ice for 30 minutes and then fixed with 2% (v/v) paraformaldehyde. After FacSort calibration, 3000 events were counted per sample. Acquisition and analysis of data were carried out by using Cell Quest flow cytometry software (Macintosh-based). Gates: M1 G0/G1, M2=S, M3=G2+M, M4=apoptosis.

[4] = cycloheximide replacing tunicamycin (data not shown)

Amphomycin
endothelial cell proliferation [1]: inhibits endothelial cell proliferation in a dose-dependent manner

Cc1ccc(OCC(O)C(C)NC(C)C)c2c1CCC2 (stereo not drawn) [ICI-118,551]
protein N-glycosylation (protein N-glycosylation): reduced protein N-glycosylation substantially

C[C@@H]1C[C@@H]([C@H](O)CC2CC(=O)NC(=O)C2)C(=O)[C@@H](C)C1 [cycloheximide]
cell proliferation [2, 4]: inhibited the cell proliferation in a time- and dose-dependent manner
induction of apoptosis [3, 4]: did not induce apoptosis

CC(C)NCC(O)COc1ccc(CC(N)=O)cc1 (stereo not drawn) [atenolol]
protein N-glycosylation (protein N-glycosylation): reduced protein N-glycosylation substantially

bFGF/FGF-2: basic fibroblast growth factor
endothelial cell proliferation ([2]; bFGF/FGF-2 10 ng/ml-100 ng/ml in 2% serum): stimulated the endothelial cell proliferation over the controls
reduction of the lag phase ([2]; bFGF/FGF-2 at stimulatory concentrations): ~24 h
time to complete the cell cycle ([3]; bFGF/FGF-2 10 ng/ml-100 ng/ml (68 hours in 2% serum control)): 56 h
shortening of the G1 phase ([3]; bFGF/FGF-2 10 ng/ml-100 ng/ml versus 2% serum): 12 h
